Where two headings read alike, the source gives them in different places. Where only a bound is given, the exact number is not on record here.

What all share (type): cell-based
The subject of assay [1] is SK-MEL-2. The assay can be described thus: SRB cytotoxicity (anti-tumor activity) in vitro, SK-MEL-2. The following applies: Homo sapiens, SK-MEL-2 malignant melanoma, 48 hours, read-out: ED50 (the source's name). The text has this:
(§1) Anti-Tumor (Cyto-Toxicity) Effect in vitro of the Compound According to the Present Invention
(§2) The method for detecting cyto-toxicity employed in the present experiment is Sulforhodamin B Bioassay (SRB) method, which was developed by National Cancer Institute (NCI) in the United States in 1989, for the purpose of measuring anti-tumor activity in vitro.
(§3) The tumor cells used in the experiments via SRB method are listed below:
SK-MEL-2: malignant melanoma, metastasis to skin of thigh
(§4) The tumor cells listed above are all human tumor cell-lines, which were distributed from NCI in the United States and subcultured in Korea Chemical Institute. As a culture medium, RPMI 1640 culture medium supplemented with 5% FBS (fetal bovine serum) was used. Cultivation was performed in an 5% CO2 incubator with constant temperature (37° C.) and humidity. The subculture was carried out every three or four days, and a solution of 0.25% tyrosine and 3 mM trans-1,2-diaminocyclohexane-n,n,n,n-tetracetic acid (CDTA) dissolved in PBS (phosphate buffered saline) was used in order to release cells from the surface of the container.
(§5) The test compound synthesized according to the present invention was diluted to have a concentration of 30.0 μg/ml, 10.0 μg/ml, 3.0 μg/ml, 1.0 μg/ml, 0.3 μg/ml and 0.1 μg/ml, respectively, and the cyto-toxicity (anti-tumor activity) of the compound was measured. The maximum concentration of the sample was not more than 30.0 μg/ml. In order to prepare the samples for detection, DMSO (dimethylsulfoxide) was used, if necessary. The concentration of DMSO added was not more than 0.5%. Before added to the tumor cells, the sample solution, which was diluted via several steps, is filtered through a Millipore filter. In a sterile condition, the sample for detecting cyto-toxicity was prepared by means of SRB method using human tumor cell-lines such as A549, SK-OV-3, SK-MEL-2, XF498 and HCT15.
(§6) The subcultured tumor cells were released from the surface of instrument by using tyrosine-CDTA solution, and then charged on a 96-well flat bottom microplate to make the cell number 5×10^3 (A549, HCT15), 1×10^4 (SK-MEL-2, XF498) and 2×10^4 (SK-OV-3) for each cell. The tumor cells are attached on the bottom by cultivating in a CO2 incubator. After removing the culture medium by using an aspirator, the medium is eliminated by using log dose of six concentrations. To each well, 100 μl of 10% TCA (trichloroacetic acid) is added, and the plate was left for 1 hour at 4° C. to fix the cells on the bottom surface of the plate.
(§7) Then, the plate was washed with distilled water 5-6 times to completely remove the residual TCA solution, and dried up at room temperature. To each well of the completely dried plate, 100 μl of dye solution, in which 0.4% SRB solution was dissolved, was added to dye the cells for 30 minutes, and the cells were washed with 1% acetic acid to remove excess SRB which was not combined with the cells. The dyed cell plates were dried at room temperature, and 100 μl of 10 mM trisma base solution was added to each well. The solution was mixed by a titer plate shaker for 10 minutes to elute the dye solution. Then, the absorbance at 520 nm was measured by using a microplate reader.
(§8) In order to calculate the cyto-toxicity (anti-tumor activity) of the samples on tumor cells, the number of tumor cells at the point of adding the sample (Tz, zero time), the number of cells when only an excess amount of culture medium was added instead of the sample and cultured for 48 hours (C, control), and the number of cells when each concentration of the sample was added and cultured for 48 hours (T, test) were measured respectively. The cyto-toxicity was determined according to the following formulas:
(§9) When Tz>T: [(T-Tz)/(C-Tz)]×100
(§10) When Tz<T: [(T-Tz)/Tz]×100
(§11) From the calculated values thus obtained, ED50 (50% effective dose) [the concentration when the sample inhibits 50% of the growth of the tumor cells] was determined by the use of data regression tool of LOTUS program. […]

Assay [2] concerns A549. The assay is described as follows: SRB cytotoxicity (anti-tumor activity) in vitro, A549. The note with it: Homo sapiens.
Text: as §1, §2, §3
A549: non small cell lungcarcinoma
as §4, §5, §6, §7, §8, §9, §10, §11

Assay [3] has as its system HCT15. The assay can be described thus: SRB cytotoxicity (anti-tumor activity) in vitro, HCT15. The note with it: Homo sapiens, HCT-15, HCT15 colon adenocarcinoma, 48 hours, read-out: ED50 (the source's name).
Text: as §1, §2, §3
HCT15: colon adenocarcinoma
as §4, §5, §6, §7, §8, §9, §10, §11

The test system of assay [4] is SK-OV-3. The assay is described as follows: SRB cytotoxicity (anti-tumor activity) in vitro, SK-OV-3. The note with it: Homo sapiens, SK-OV-3 ovary adenocarcinoma, 48 hours, read-out: ED50 (the source's name).
Text: as §1, §2, §3
SK-OV-3: adenocarcinoma, ovary malignant ascites
as §4, §5, §6, §7, §8, §9, §10, §11

Assay [5] concerns XF498. The assay is described as follows: SRB cytotoxicity (anti-tumor activity) in vitro, XF498. The note with it: Homo sapiens, XF498 central nerve system tumor, 48 hours, read-out: ED50 (the source's name).
Text: as §1, §2, §3
XF498: central nerve system tumor
as §4, §5, §6, §7, §8, §9, §10, §11

[6] abbreviates: A549 non small cell lung carcinoma, SRB, 48 hours, read-out: ED50 (the source's name).

On to `C=C(COS(=O)(=O)c1ccc(OC)cc1)c1ccc(C)cc1OC(C)=O` [13'-3, 10-(4-Methoxybenzenesulfoxy)-8,9-methylenethymol acetate], for which the IC50 in assay [1] is 8.4 µM; in assay [2] (setting [6]) it was 28.2 µM; in assay [3], 2.6 µM; in assay [4], 27.4 µM.

For the compound `Cc1ccc(C2(COC(=O)C(C)C)CO2)c(OC(=O)C(C)C)c1` (stereo not shown) [Compound 11, 10-isobutyryloxy-8,9-epoxythymol isobutyrate], the IC50 in assay [5] is 37.2 µM; in assay [1], 11.6 µM; in assay [2] (setting [6]), 40.5 µM; in assay [3], 10.8 µM; in assay [4] it was 8.3 µM.

Consider `Cc1ccc(C2(COC(=O)Cc3ccccc3)CO2)c(OC(=O)C(C)C)c1` (stereo not shown) [Compound 11-1, 10-Phenylacetoxy-8,9-epoxythymol isobutyrate], for which the IC50 came to 32.5 µM in assay [5]; 10.5 µM in assay [1]; 35.5 µM in assay [2] (A549, 48 h, read-out: ED50); 9.5 µM in assay [3]; 7.9 µM in assay [4].

For the compound `Cc1ccc(C2(COC(=O)Cc3ccc([N+](=O)[O-])cc3)CO2)c(OC(=O)C(C)C)c1` (stereo not shown) [Compound 11-2, 10-(4-Nitrophenylacetoxy)-8,9-epoxythymol isobutyrate], the IC50 in assay [5] came out at 28.4 µM; in assay [1] it was 9.9 µM; in assay [2] (setting [6]) it was 32.1 µM; in assay [3], 8.7 µM; in assay [4], 14 µM.

For the compound `Cc1ccc(C2(COC(=O)Cc3ccc(F)cc3)CO2)c(OC(=O)C(C)C)c1` (stereo not shown) [Compound 11-3, 10-(4-Fluorophenylacetoxy)-8,9-epoxythymol isobutyrate], the IC50 in assay [5] stood at 3.1 µM; in assay [1] it was 3.7 µM; in assay [2] (setting [6]), 10.7 µM; in assay [3], 0.6 µM; in assay [4] it was 1 µM.

`CC(=O)Oc1cc(C)ccc1C1(COC(=O)Cc2ccc([N+](=O)[O-])cc2)CO1` (stereo not shown) [Compound 14-3, 10-(4-Nitrophenylacetoxy)-8,9-epoxythymol acetate]: the IC50 in assay [5] stood at 35.4 µM; in assay [1] it was 11 µM; in assay [2] (setting [6]), 38.3 µM; in assay [3] it was 10.6 µM; in assay [4], 25.6 µM.

For the compound `CC(=O)OCC1(c2ccc(C)cc2OC(C)=O)CO1` (stereo not shown) [Compound 14-8, 10-Acetoxy-8,9-epoxythymol acetate], the IC50 stood at 45.5 µM in assay [5]; 14.9 µM in assay [1]; 51.2 µM in assay [2] (setting [6]); 13.3 µM in assay [3]; 12.6 µM in assay [4].

Regarding `CC(=O)Oc1cc(C)ccc1C(O)(CO)COC(=O)Cc1ccccc1` (stereo not shown) [Compound 15-1, 10-Phenylacetoxy-8,9-dihydroxythymol acetate], the IC50 in assay [5] is 59.9 µM; in assay [1] it was 14.8 µM; in assay [2] (A549, 48 h, read-out: ED50) it was greater than 100 µM; in assay [3] it was 11.6 µM; in assay [4], 39.9 µM.

Turning to `CC(=O)Oc1cc(C)ccc1C(O)(CO)COC(=O)Cc1ccc([N+](=O)[O-])cc1` (stereo not shown) [Compound 15-2, 10-(4-Nitrophenylacetoxy)-8,9-dihydroxythymol acetate], the IC50 in assay [5] was 45.1 µM; in assay [1] it was 12.8 µM; in assay [2] (setting [6]) it was greater than 100 µM; in assay [3] it was 20.2 µM; in assay [4] it was 25.8 µM.

For the compound `COc1ccc(CC(=O)OCC(O)(CO)c2ccc(C)cc2OC(C)=O)cc1` (stereo not shown) [Compound 15-4, 10-(4-Methoxyphenylacetoxy)-8,9-dihydroxythymol acetate], the IC50 in assay [5] was 55.7 µM; in assay [1], 12 µM; in assay [2] (setting [6]), greater than 100 µM; in assay [3], 11.2 µM; in assay [4], 21.3 µM.

As to `CC(=O)Oc1cc(C)ccc1C(O)(CO)COC(=O)c1ccccc1` (stereo not shown) [Compound 15-5, 10-Benzoxy-8,9-dihydroxythymol acetate], the IC50 in assay [5] was 60.4 µM; in assay [1], 16.6 µM; in assay [2] (setting [6]), greater than 100 µM; in assay [3], 12.7 µM; in assay [4], 35.1 µM.

On to `CC(=O)Oc1cc(C)ccc1C(O)(CO)COC(=O)c1ccc([N+](=O)[O-])cc1` (stereo not shown) [Compound 15-6, 10-(4-Nitrobenzoxy)-8,9-dihydroxythymol acetate], for which the IC50 in assay [5] is 40.9 µM; in assay [1], 10.9 µM; in assay [2] (setting [6]), greater than 100 µM; in assay [3], 10.4 µM; in assay [4], 19.6 µM.

Regarding `COc1ccc(C(=O)OCC(O)(CO)c2ccc(C)cc2OC(C)=O)cc1` (stereo not shown) [Compound 15-7, 10-(4-Methoxybenzoxy)-8,9-dihydroxythymol acetate], the IC50 is 63.3 µM in assay [5]; 14.9 µM in assay [1]; greater than 100 µM in assay [2] (setting [6]); 15 µM in assay [3]; 38.2 µM in assay [4].

With `Cc1ccc(C(O)(CO)COC(=O)Cc2ccc(F)cc2)c(OC(=O)C(C)C)c1` (stereo not shown) [Compound 15-8, 10-(4-Fluorophenylacetoxy)-8,9-dihydroxythymol isobutyrate], the IC50 in assay [5] is 55.9 µM; in assay [1], 10.8 µM; in assay [2] (setting [6]), greater than 100 µM; in assay [3], 12.2 µM; in assay [4], 24.2 µM.

Consider `CC(=O)Oc1ccc(C2(COC(=O)Cc3ccccc3)CO2)c(OC(C)=O)c1` (stereo not shown) [Compound 27-1, 2-(2',4'-Diacetoxyphenyl)-3-phenylacetoxy-1,2-epoxypropane], for which the IC50 in assay [5] was determined as 4.7 µM; in assay [1], 4.5 µM; in assay [2] (A549, 48 h, read-out: ED50), 30.6 µM; in assay [3], 3 µM; in assay [4] it was 2.9 µM.

As to `CC(=O)Oc1ccc(C2(COC(=O)Cc3ccc([N+](=O)[O-])cc3)CO2)c(OC(C)=O)c1` (stereo not shown) [Compound 27-2, 2-(2',4'-Diacetoxyphenyl)-3-(4-nitrophenylacetoxy)-1,2-epoxypropane], the IC50 was determined as 4.1 µM in assay [5]; 3.8 µM in assay [1]; 23.5 µM in assay [2] (setting [6]); 2.4 µM in assay [3]; 2.7 µM in assay [4].

As to `CC(=O)Oc1ccc(C2(COC(=O)Cc3ccc(F)cc3)CO2)c(OC(C)=O)c1` (stereo not shown) [Compound 27-3, 2-(2',4'-Diacetoxyphenyl)-3-(4-fluorophenylacetoxy)-1,2-epoxypropane], the IC50 in assay [5] is 11 µM; in assay [1], 9.3 µM; in assay [2] (setting [6]) it was 36.7 µM; in assay [3] it was 4.5 µM; in assay [4], 3.9 µM.

Regarding `CC(=O)OCC1(c2ccc(OC(C)=O)cc2OC(C)=O)CO1` (stereo not shown) [Compound 27-5, 2-(2',4'-Diacetoxyphenyl)-3-acetoxy-1,2-epoxypropane], the IC50 in assay [5] is 5 µM; in assay [1] it was 4.8 µM; in assay [2] (setting [6]), 18.6 µM; in assay [3], 1.4 µM; in assay [4] it was 2.9 µM.

Turning to `CC(=O)Oc1ccccc1C1(COC(=O)Cc2ccccc2)CO1` (stereo not shown) [Compound 33-1], the IC50 in assay [5] was 9.8 µM; in assay [1], 9.3 µM; in assay [2] (A549, 48 h, read-out: ED50), 42.8 µM; in assay [3], 10.4 µM; in assay [4] it was 11.5 µM.

The values above are taken from patent publication US6255517A, “Thymol derivatives having anti-tumor activity, and anti-cancer agent comprising the same” (Zee; Ok Pyo, priority 1998, dated 2001).
